Literature values, collected in paper PMC4245168 (ACS Chemical Biology, 2014).

Test system: parent TPR2A protein
Details: MEAVD versus MEEVD, ref [8]; cited from earlier work

Substance: MEAVD
- ΔΔG associated with the difference between MEAVD and MEEVD binding: ~0.6 kcal/mol
